In ChEMBL document CHEMBL1201862, “PubChem BioAssay data set” (2004):
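The compound was tested at five concentrations on cells cultured in 96-well plates, with a 48-hour exposure period. Abbreviation: GI50, concentration required for 50% inhibition of growth.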 Activity calls are given as the source filed them. Rule as the data show it: active = GI50 up to about 1.1 µM and inactive = higher.

How the values were obtained:
Experiment in all cases: NCI-60 cell line screen, 48 h
[1] = tested on: SR
[2] = tested on: DMS-114
[3] = tested on: SK-OV-3
[4] = tested on: OVCAR-8
[5] = tested on: SK-MEL-5
[6] = tested on: KM12
[7] = tested on: SK-MEL-28
[8] = tested on: RPMI-8226
[9] = tested on: SNB-19
[10] = tested on: A549
[11] = tested on: OVCAR-5
[12] = tested on: M14
[13] = tested on: SW-620
[14] = tested on: EKVX
[15] = tested on: HOP-18
[16] = tested on: NCI-H23
[17] = tested on: KM-20L2
[18] = tested on: MCF7
[19] = tested on: MDA-N
[20] = tested on: MDA-MB-435

Row | Structure (SMILES) | GI50 [1] | GI50 [2] | GI50 [3] | GI50 [4] | GI50 [5] | GI50 [6] | GI50 [7] | GI50 [8] | GI50 [9] | GI50 [10] | GI50 [11] | GI50 [12] | GI50 [13] | GI50 [14] | GI50 [15] | GI50 [16] | GI50 [17] | GI50 [18] | GI50 [19] | GI50 [20]
1 | CC(C)CCC1CC2C(=O)N(c3ccccc3)C(=O)C2c2[nH]c3ccccc3c21 (configuration not stated) | 3.4 µM (inactive) | 0.6 µM (active) | 1.36 µM (inactive) | 0.9 µM (active) | 0.347 µM (active) | 1.28 µM (inactive) | 4.68 µM (inactive) | 1.08 µM (active) | 1.24 µM (inactive) | 0.412 µM (active) | 17.5 µM (inactive) | 0.288 µM (active) | 0.796 µM (active) | 1.55 µM (inactive) | 7.06 µM (inactive) | 2.79 µM (inactive) |  |  |  | 
2 | COc1ccc(-c2nnc3c4ccccc4sn23)cc1 | 16.6 µM (inactive) | 17.1 µM (inactive) |  | 32.5 µM (inactive) | 34.4 µM (inactive) | 19.3 µM (inactive) | 22.8 µM (inactive) | 19.1 µM (inactive) | 29.9 µM (inactive) | 25.4 µM (inactive) | > 100 µM (inactive) | 26.4 µM (inactive) | 49 µM (inactive) | 50.7 µM (inactive) | 23.2 µM (inactive) | 13.3 µM (inactive) | 29.2 µM (inactive) |  |  | 
3 | Cc1cc(Cl)ccc1N1C(=O)C(=O)C(c2nc3ccccc3o2)C(=O)C1=O | 34 µM (inactive) | 68.9 µM (inactive) | > 100 µM (inactive) | > 100 µM (inactive) | > 100 µM (inactive) | > 100 µM (inactive) | 96.4 µM (inactive) |  | > 100 µM (inactive) | > 100 µM (inactive) |  | 67 µM (inactive) | 43.7 µM (inactive) | > 100 µM (inactive) | > 100 µM (inactive) | > 100 µM (inactive) | > 100 µM (inactive) |  |  | 
4 | Brc1ccc(C2CC(c3cccc4ccccc34)=Nc3ccccc3S2)cc1 (configuration not stated) | 27.5 µM (inactive) |  | > 100 µM (inactive) | > 100 µM (inactive) | > 100 µM (inactive) | 70.5 µM (inactive) | > 100 µM (inactive) | 10.9 µM (inactive) | > 100 µM (inactive) | > 100 µM (inactive) | > 100 µM (inactive) | > 100 µM (inactive) | 16.7 µM (inactive) | 37.1 µM (inactive) |  | 86.5 µM (inactive) | 96.8 µM (inactive) |  |  | 
5 | O=C(O)/C=C/c1c[nH]cn1 |  | > 500 µM (inactive) | > 500 µM (inactive) | > 500 µM (inactive) | > 232 µM (inactive) | > 500 µM (inactive) | > 500 µM (inactive) | > 500 µM (inactive) | > 500 µM (inactive) | > 500 µM (inactive) | > 500 µM (inactive) |  | > 500 µM (inactive) | > 500 µM (inactive) | > 500 µM (inactive) | > 500 µM (inactive) |  | > 500 µM (inactive) |  | 
6 | O=C1C2C(C(=O)N1OS(=O)(=O)c1ccccc1)N(Cc1ccccc1)C(=O)N2Cc1ccccc1 (configuration not stated) | > 100 µM (inactive) | > 100 µM (inactive) | > 100 µM (inactive) |  | > 100 µM (inactive) | > 100 µM (inactive) | > 100 µM (inactive) | > 100 µM (inactive) | > 100 µM (inactive) | > 100 µM (inactive) | > 100 µM (inactive) | > 100 µM (inactive) | > 100 µM (inactive) | > 100 µM (inactive) |  | > 100 µM (inactive) | > 100 µM (inactive) |  |  | 
7 | N#Cc1c(N2CCOCC2)ncn(-c2ccccc2)c1=O | > 100 µM (inactive) |  | > 100 µM (inactive) | > 100 µM (inactive) | > 100 µM (inactive) | > 100 µM (inactive) | > 100 µM (inactive) | > 100 µM (inactive) | > 100 µM (inactive) | > 100 µM (inactive) | > 100 µM (inactive) | > 100 µM (inactive) | > 100 µM (inactive) | > 100 µM (inactive) |  | > 100 µM (inactive) |  | > 100 µM (inactive) | > 100 µM (inactive) | > 100 µM (inactive)
8 | COc1c(Cl)cc(S(=O)O)cc1Cl |  | > 100 µM (inactive) | > 100 µM (inactive) |  |  | > 100 µM (inactive) | > 100 µM (inactive) |  | > 100 µM (inactive) |  | > 100 µM (inactive) | > 100 µM (inactive) |  | > 100 µM (inactive) |  | > 100 µM (inactive) |  |  |  | 
9 | CC(=O)N(CCN1C(=O)c2ccccc2C1=O)CCN1C(=O)c2ccccc2C1=O | > 100 µM (inactive) | > 100 µM (inactive) | > 100 µM (inactive) | > 100 µM (inactive) | > 100 µM (inactive) | > 100 µM (inactive) | > 100 µM (inactive) | > 100 µM (inactive) | > 100 µM (inactive) | > 100 µM (inactive) |  | > 100 µM (inactive) | > 100 µM (inactive) | > 100 µM (inactive) |  | > 100 µM (inactive) | > 100 µM (inactive) |  |  | 
10 | N#CSCC1COc2ccccc2O1 (configuration not stated) | 2.58 µM (inactive) |  | > 10 µM (inactive) | > 10 µM (inactive) | 6.87 µM (inactive) | > 10 µM (inactive) | > 10 µM (inactive) | 4.98 µM (inactive) | > 10 µM (inactive) | > 10 µM (inactive) | > 10 µM (inactive) | 8.39 µM (inactive) | 4.97 µM (inactive) | > 10 µM (inactive) |  | > 10 µM (inactive) |  | > 10 µM (inactive) | > 10 µM (inactive) | > 10 µM (inactive)
11 | CC1(C)N=C(N)N=C(N)N1c1ccc(Cl)cc1 | 1.36 µM (inactive) |  | 27.4 µM (inactive) | 0.817 µM (active) | 8.11 µM (inactive) | 8.73 µM (inactive) | 37.1 µM (inactive) | 6.81 µM (inactive) | 22.6 µM (inactive) | 0.665 µM (active) | 15 µM (inactive) | 4.88 µM (inactive) | 1.48 µM (inactive) | 26.7 µM (inactive) |  | 3.44 µM (inactive) |  | 15.6 µM (inactive) | 1.51 µM (inactive) | 1.79 µM (inactive)
12 | CCCCCCCCC[C@@H]1C[C@H](O)[C@H](Cc2ccccc2)N1C(=O)OC(C)(C)C | 18.2 µM (inactive) | 16.9 µM (inactive) | 19.6 µM (inactive) | 17.5 µM (inactive) | 19.1 µM (inactive) | 18.7 µM (inactive) | 19.7 µM (inactive) | 24.1 µM (inactive) | 18.6 µM (inactive) | 18 µM (inactive) | 15.1 µM (inactive) | 22.6 µM (inactive) | 20.1 µM (inactive) | 14.4 µM (inactive) |  | 15.6 µM (inactive) | 17.1 µM (inactive) |  |  | 
13 | Sc1nn2c(COc3cc(Cl)c(OCc4nnc5sc(S)nn45)cc3Cl)nnc2s1 | 30.1 µM (inactive) |  | > 100 µM (inactive) | 88.5 µM (inactive) | 41.2 µM (inactive) | > 100 µM (inactive) | 31.3 µM (inactive) | 32.4 µM (inactive) | > 100 µM (inactive) | > 100 µM (inactive) | > 100 µM (inactive) | > 100 µM (inactive) | 30.3 µM (inactive) | 5.51 µM (inactive) |  | > 100 µM (inactive) |  | 18.2 µM (inactive) | 33.6 µM (inactive) | 43.9 µM (inactive)
14 | CCCCCCCC/C=C\CCCCCCCCNc1ccn(C2OC(COP(=O)(O)OC3CC(n4cc(F)c(=O)[nH]c4=O)OC3CO)C(O)C2O)c(=O)n1 (configuration not stated) | 0.0159 µM (active) |  | 14.6 µM (inactive) | 0.329 µM (active) | 10.4 µM (inactive) | 45 µM (inactive) | 32.1 µM (inactive) | 0.0509 µM (active) | 0.376 µM (active) | < 0.0194 µM (active) | > 100 µM (inactive) | 0.315 µM (active) | > 41.3 µM (inactive) | > 100 µM (inactive) |  | 0.433 µM (active) |  | < 0.0394 µM (active) | > 55.1 µM (inactive) | 40.8 µM (inactive)
15 | CC(NNC(=O)c1cc[n+]([BH2-]C#N)cc1)c1ccc(F)cc1 (configuration not stated) | > 100 µM (inactive) |  | > 100 µM (inactive) | > 100 µM (inactive) | > 100 µM (inactive) | > 100 µM (inactive) | > 100 µM (inactive) | > 100 µM (inactive) | > 100 µM (inactive) | > 100 µM (inactive) | > 100 µM (inactive) | > 100 µM (inactive) | > 100 µM (inactive) | > 100 µM (inactive) |  | > 100 µM (inactive) |  | > 100 µM (inactive) | > 100 µM (inactive) | > 100 µM (inactive)
16 | O=C1CSC(c2ccccc2)N1c1ccc(-c2ccc(-n3c(-c4ccccc4)nc4ccccc4c3=O)cc2)cc1 (configuration not stated) | 19.5 µM (inactive) |  | > 100 µM (inactive) | 44.4 µM (inactive) | 25.2 µM (inactive) | 26.2 µM (inactive) | > 100 µM (inactive) | 36.8 µM (inactive) | 82.8 µM (inactive) | 41.7 µM (inactive) | > 100 µM (inactive) | 50 µM (inactive) | 97.7 µM (inactive) | 55.3 µM (inactive) |  | 57.1 µM (inactive) |  | 35.1 µM (inactive) | 64.9 µM (inactive) | 49.8 µM (inactive)
17 | COc1ccc(-c2cc(=O)c3ccccc3o2)cc1N |  | 34 µM (inactive) | > 100 µM (inactive) | 36.1 µM (inactive) | 25.8 µM (inactive) | 29.3 µM (inactive) | 57.8 µM (inactive) | 44.8 µM (inactive) | 60.4 µM (inactive) | 49.9 µM (inactive) | 56 µM (inactive) | 27.1 µM (inactive) | 38.4 µM (inactive) | 16.4 µM (inactive) | 17.7 µM (inactive) | 38.5 µM (inactive) | 34.1 µM (inactive) |  |  | 
